Laboratory results: patent publication US20230085307A1, “PYRIDAZINONE COMPOUND AND HERBICIDE” (NISSAN CHEMICAL CORPORATION, priority 2019, published 2023)

What was measured:
[1] = test system: late watergrass; assay: Test Example 1: herbicidal activity, application before weed generation under submerged conditions (Table 16, symbol A); format: in vivo, late watergrass (Echinochloa oryzicola); conditions: amount of applied herbicide 320 g/ha
In short: (§1)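 Emulsion formulation, water-diluted to set dose, was put onto the flooded surface (4 cm depth, alluvial soil) the same day weeds were sown and 2.5-leaf rice transplanted. After 3 weeks at 25-30 °C under glass, each species was rated 0 (≤5% kill) to 5 (≥90% kill).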

[2] = test system: Japanese bulrush; assay: Test Example 1: herbicidal activity, application before weed generation under submerged conditions (Table 16, symbol B); format: in vivo, Japanese bulrush (Schoenoplectus juncoides); conditions: amount of applied herbicide 320 g/ha
In short: as §1

[3] = test system: oval-leafed pondweed; assay: Test Example 1: herbicidal activity, application before weed generation under submerged conditions (Table 16, symbol C); format: in vivo, oval-leafed pondweed (Monochoria vaginalis); conditions: amount of applied herbicide 320 g/ha
In short: as §1

[4] = test system: late watergrass; assay: Test Example 2: herbicidal activity, application during weed generation under submerged conditions (Table 17, symbol A); format: in vivo, late watergrass (Echinochloa oryzicola); conditions: AAH 320 g/ha; application during weed generation, submerged conditions
In short: (§2)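 Alluvial soil in Wagner pots was flooded to 4 cm depth and sown with the three weeds together; pots were kept in a greenhouse at 25° C. to 30° C. At the one to two leaf stage, an emulsion formulation diluted in water to a set rate went onto the water surface; scored three weeks later.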

[5] = test system: Japanese bulrush; assay: Test Example 2: herbicidal activity, application during weed generation under submerged conditions (Table 17, symbol B); format: in vivo, Japanese bulrush (Schoenoplectus juncoides); conditions: AAH 320 g/ha; application during weed generation, submerged conditions
In short: as §2

[6] = test system: oval-leafed pondweed; assay: Test Example 2: herbicidal activity, application during weed generation under submerged conditions (Table 17, symbol C); format: in vivo, oval-leafed pondweed (Monochoria vaginalis); conditions: AAH 320 g/ha; application during weed generation, submerged conditions
In short: as §2

[7] = test system: barnyard grass; assay: Test Example 3: herbicidal effect by foliage application, Wagner pot (Table 18, symbol H); format: in vivo, barnyard grass (Echinochloa crus-galli); conditions: for herbicidal effect on H: barnyard grass: amount of applied herbicide 320 g/ha
In short: (§3)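 Plants were sown in alluvial soil held under 0.1–0.5 cm standing water and grown 14 days in a greenhouse at 25–30 °C. An emulsifiable formulation, water-diluted to the set dose, was then sprayed onto the foliage, and effects were scored three weeks later using previously defined criteria.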

[8] = test system: Chinese sprangletop; assay: Test Example 3: herbicidal effect by foliage application, Wagner pot (Table 18, symbol D); format: in vivo, chinese sprangletop (Leptochloa chinensis); conditions: for herbicidal effect on D: Chinese sprangletop: amount of applied herbicide 320 g/ha
In short: as §3

[9] = test system: rice flat sedge; assay: Test Example 3: herbicidal effect by foliage application, Wagner pot (Table 18, symbol E); format: in vivo, rice flat sedge (Cyperus iria); conditions: for herbicidal effect on E: rice flat sedge: amount of applied herbicide 320 g/ha
In short: as §3

[10] = test system: southern crabgrass; assay: Test Example 5: herbicidal effect by foliage application, plastic box (Table 20, symbol F); format: in vivo, southern crabgrass (Digitaria ciliaris); conditions: 320 g/ha; for F: southern crabgrass, herbicidal effect grade: foliage application, three weeks after application
In short: (§4)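 Plants sown in sterilized diluvial soil and grown 14 days in a greenhouse at 25° C to 30° C, then sprayed on the foliage with the compound's emulsion diluted in water to a predetermined herbicide amount. Injury to weeds and crops scored three weeks after application on a visual rating scale.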

[11] = test system: green foxtail; assay: Test Example 5: herbicidal effect by foliage application, plastic box (Table 20, symbol G); format: in vivo, green foxtail (Setaria viridis); conditions: 320 g/ha; for G: green foxtail, herbicidal effect grade: foliage application, three weeks after application
In short: as §4

[12] = test system: barnyard grass; assay: Test Example 5: herbicidal effect by foliage application, plastic box (Table 20, symbol H); format: in vivo, barnyard grass (Echinochloa crus-galli); conditions: 320 g/ha; for H: barnyard grass, herbicidal effect grade: foliage application, three weeks after application
In short: as §4

[13] = test system: wild oat; assay: Test Example 5: herbicidal effect by foliage application, plastic box (Table 20, symbol I); format: in vivo, wild oat (Avena fatua); conditions: 320 g/ha; for I: wild oat, herbicidal effect grade: foliage application, three weeks after application
In short: as §4

[14] = test system: blackgrass; assay: Test Example 5: herbicidal effect by foliage application, plastic box (Table 20, symbol J); format: in vivo, blackgrass (Alopecurus myosuroides); conditions: 320 g/ha; for J: blackgrass, herbicidal effect grade: foliage application, three weeks after application
In short: as §4

[15] = test system: Italian ryegrass; assay: Test Example 5: herbicidal effect by foliage application, plastic box (Table 20, symbol K); format: in vivo, Italian ryegrass (Lolium multiflorum); conditions: 320 g/ha; for K: Italian ryegrass, herbicidal effect grade: foliage application, three weeks after application
In short: as §4

[16] = test system: windgrass; assay: Test Example 5: herbicidal effect by foliage application, plastic box (Table 20, symbol L); format: in vivo, windgrass (Apera spica-venti); conditions: 320 g/ha; for L: windgrass, herbicidal effect grade: foliage application, three weeks after application
In short: as §4

[17] = test system: velvetleaf; assay: Test Example 5: herbicidal effect by foliage application, plastic box (Table 20, symbol M); format: in vivo, velvetleaf (Abutilon theophrasti); conditions: 320 g/ha; for M: velvetleaf, herbicidal effect grade: foliage application, three weeks after application
In short: as §4

[18] = test system: redroot pigweed; assay: Test Example 5: herbicidal effect by foliage application, plastic box (Table 20, symbol N); format: in vivo, redroot pigweed (Amaranthus retroflexus); conditions: 320 g/ha; for N: redroot pigweed, herbicidal effect grade: foliage application, three weeks after application
In short: as §4

[19] = test system: lambsquarters; assay: Test Example 5: herbicidal effect by foliage application, plastic box (Table 20, symbol O); format: in vivo, lambsquarters (Chenopodium album); conditions: 320 g/ha; for O: lambsquarters, herbicidal effect grade: foliage application, three weeks after application
In short: as §4

[20] = test system: chickweed; assay: Test Example 5: herbicidal effect by foliage application, plastic box (Table 20, symbol P); format: in vivo, common chickweed (Stellaria media); conditions: 320 g/ha; for P: chickweed, herbicidal effect grade: foliage application, three weeks after application
In short: as §4

[21] = test system: persian speedwell; assay: Test Example 5: herbicidal effect by foliage application, plastic box (Table 20, symbol R); format: in vivo, Persian speedwell (Veronica persica); conditions: 320 g/ha; for R: persian speedwell, herbicidal effect grade: foliage application, three weeks after application
In short: as §4

[22] = foliage application after 14-day growth, evaluated three weeks after application

SMILES	Herbicidal effect, A: late watergrass [1]	Herbicidal effect, B: Japanese bulrush [2]	Herbicidal effect, C: oval-leafed pondweed [3]	herbicidal effect rating, A: late watergrass [4]	herbicidal effect rating, B: Japanese bulrush [5]	herbicidal effect rating, C: oval-leafed pondweed [6]	herbicidal effect on H: barnyard grass [7]	herbicidal effect on D: Chinese sprangletop [8]	herbicidal effect on E: rice flat sedge [9]	F: southern crabgrass, herbicidal effect grade [10]	G: green foxtail, herbicidal effect grade [11]	H: barnyard grass, herbicidal effect grade [12]	I: wild oat, herbicidal effect grade [13]	J: blackgrass, herbicidal effect grade [14]	K: Italian ryegrass, herbicidal effect grade [15]	L: windgrass, herbicidal effect grade [16]	M: velvetleaf, herbicidal effect grade [17]	N: redroot pigweed, herbicidal effect grade [18]	O: lambsquarters, herbicidal effect grade [19]	P: chickweed, herbicidal effect grade [20]	other results
CCCC(=O)Oc1c(CC)nn(C)c(=O)c1-c1c(-c2ccc(Cl)cc2)sc2ccc(F)cc12 [2-409]	3 (Herbicidal rate of 40% or more and less than 70%)	3 (Herbicidal rate of 40% or more and less than 70%)	2 (Herbicidal rate of 20% or more and less than 40%)	2 (Herbicidal rate of 20% or more and less than 40%)	3 (Herbicidal rate of 40% or more and less than 70%)	3 (Herbicidal rate of 40% or more and less than 70%)	5 (Herbicidal rate of 90% or more (almost completely withered))	4 (Herbicidal rate of 70% or more and less than 90%)	5 (Herbicidal rate of 90% or more (almost completely withered))	3 (Herbicidal rate of 40% or more and less than 70%)	4 (Herbicidal rate of 70% or more and less than 90%)	3 (Herbicidal rate of 40% or more and less than 70%)	0 (Herbicidal rate of 5% or less (almost no effect))	0 (Herbicidal rate of 5% or less (almost no effect))	1 (Herbicidal rate of 5% or more and less than 20%)	0 (Herbicidal rate of 5% or less (almost no effect))	5 (Herbicidal rate of 90% or more (almost completely withered))	5 (Herbicidal rate of 90% or more (almost completely withered))	4 (Herbicidal rate of 70% or more and less than 90%)	4 (Herbicidal rate of 70% or more and less than 90%)	R: persian speedwell, herbicidal effect grade [21]: 4 (Herbicidal rate of 70% or more and less than 90%)
CCCC(=O)Oc1c(CC)nn(C)c(=O)c1-c1c(-c2ccc(OC(F)(F)F)cc2)sc2ccc(F)cc12 [2-413]	3 (Herbicidal rate of 40% or more and less than 70%)	0 (Herbicidal rate of 5% or less (almost no effect))	0 (Herbicidal rate of 5% or less (almost no effect))	3 (Herbicidal rate of 40% or more and less than 70%)	1 (Herbicidal rate of 5% or more and less than 20%)	0 (Herbicidal rate of 5% or less (almost no effect))	5 (Herbicidal rate of 90% or more (almost completely withered))	4 (Herbicidal rate of 70% or more and less than 90%)	4 (Herbicidal rate of 70% or more and less than 90%)	0 (Herbicidal rate of 5% or less (almost no effect))	3 (Herbicidal rate of 40% or more and less than 70%)	1 (Herbicidal rate of 5% or more and less than 20%)	0 (Herbicidal rate of 5% or less (almost no effect))	0 (Herbicidal rate of 5% or less (almost no effect))	2 (Herbicidal rate of 20% or more and less than 40%)	0 (Herbicidal rate of 5% or less (almost no effect))	4 (Herbicidal rate of 70% or more and less than 90%)	4 (Herbicidal rate of 70% or more and less than 90%)	4 (Herbicidal rate of 70% or more and less than 90%)	5 (Herbicidal rate of 90% or more (almost completely withered))	R: persian speedwell, herbicidal effect grade [21]: 5 (Herbicidal rate of 90% or more (almost completely withered))
CCCOc1ccc(-c2sc3ccc(F)cc3c2-c2c(O)c(CC)nn(C)c2=O)cc1 [2-418]	4 (Herbicidal rate of 70% or more and less than 90%)	4 (Herbicidal rate of 70% or more and less than 90%)	2 (Herbicidal rate of 20% or more and less than 40%)	2 (Herbicidal rate of 20% or more and less than 40%)	3 (Herbicidal rate of 40% or more and less than 70%)	0 (Herbicidal rate of 5% or less (almost no effect))	5 (Herbicidal rate of 90% or more (almost completely withered))	3 (Herbicidal rate of 40% or more and less than 70%)	5 (Herbicidal rate of 90% or more (almost completely withered))	2 (Herbicidal rate of 20% or more and less than 40%)	3 (Herbicidal rate of 40% or more and less than 70%)	4 (Herbicidal rate of 70% or more and less than 90%)	0 (Herbicidal rate of 5% or less (almost no effect))	4 (Herbicidal rate of 70% or more and less than 90%)	4 (Herbicidal rate of 70% or more and less than 90%)	4 (Herbicidal rate of 70% or more and less than 90%)	5 (Herbicidal rate of 90% or more (almost completely withered))	5 (Herbicidal rate of 90% or more (almost completely withered))	5 (Herbicidal rate of 90% or more (almost completely withered))	5 (Herbicidal rate of 90% or more (almost completely withered))	R: persian speedwell, herbicidal effect grade [21]: 5 (Herbicidal rate of 90% or more (almost completely withered))
COc1ccc2c(-c3c(OC(=O)C(C)c4ccccc4)c(C)nn(C)c3=O)c(-c3ccccc3OC)sc2c1 (stereo not drawn) [3-157]	5 (Herbicidal rate of 90% or more (almost completely withered))	3 (Herbicidal rate of 40% or more and less than 70%)	3 (Herbicidal rate of 40% or more and less than 70%)	4 (Herbicidal rate of 70% or more and less than 90%)	3 (Herbicidal rate of 40% or more and less than 70%)	4 (Herbicidal rate of 70% or more and less than 90%)	–	–	–	–	–	–	–	–	–	–	–	–	–	–	herbicidal effect on barnyard grass (H) ([7]; 320 g/ha): 5 (Herbicidal rate of 90% or more (almost completely withered)); herbicidal effect on Chinese sprangletop (D) ([8]; 320 g/ha): 3 (Herbicidal rate of 40% or more and less than 70%); herbicidal effect on rice flat sedge (E) ([9]; 320 g/ha): 3 (Herbicidal rate of 40% or more and less than 70%); herbicidal effect on F: southern crabgrass (evaluation grade 0-5) [10, 22]: 4 (Herbicidal rate of 70% or more and less than 90%); herbicidal effect on G: green foxtail (evaluation grade 0-5) [11, 22]: 4 (Herbicidal rate of 70% or more and less than 90%); herbicidal effect on H: barnyard grass (evaluation grade 0-5) [12, 22]: 5 (Herbicidal rate of 90% or more (almost completely withered)); herbicidal effect on I: wild oat (evaluation grade 0-5) [13, 22]: 3 (Herbicidal rate of 40% or more and less than 70%); herbicidal effect on J: blackgrass (evaluation grade 0-5) [14, 22]: 4 (Herbicidal rate of 70% or more and less than 90%); herbicidal effect on K: Italian ryegrass (evaluation grade 0-5) [15, 22]: 3 (Herbicidal rate of 40% or more and less than 70%); herbicidal effect on L: windgrass (evaluation grade 0-5) [16, 22]: 5 (Herbicidal rate of 90% or more (almost completely withered)); herbicidal effect on M: velvetleaf (evaluation grade 0-5) [17, 22]: 5 (Herbicidal rate of 90% or more (almost completely withered)); herbicidal effect on N: redroot pigweed (evaluation grade 0-5) [18, 22]: 4 (Herbicidal rate of 70% or more and less than 90%); herbicidal effect on O: lambsquarters (evaluation grade 0-5) [19, 22]: 4 (Herbicidal rate of 70% or more and less than 90%); herbicidal effect on P: chickweed (evaluation grade 0-5) [20, 22]: 4 (Herbicidal rate of 70% or more and less than 90%); herbicidal effect on R: persian speedwell (evaluation grade 0-5) [21, 22]: 4 (Herbicidal rate of 70% or more and less than 90%)
